Values of other authors in patent publication US20250325691A1, “HER2-GST-SN-38 COMPLEX, AND PHARMACEUTICAL COMPOSITION COMPRISING SAME FOR PREVENTING OR TREATING PROLIFERATIVE DISEASES” (priority 2022, published 2025).

Tested on: various cancer cells
Conditions: various cancer cells in vitro; cited from earlier work

SMILES: CCc1c2c(nc3ccc(O)cc13)-c1cc3c(c(=O)n1C2)COC(=O)[C@]3(O)CC [SN-38, 7-ethyl-10-hydroxycamptothecin]
- cytotoxic activity, times more potent than irinotecan: up to 1,000 times
